From US11226337B2, “Chemoproteomic profiling of protein electrophilic and oxidative post-translational modifications” (Zenagem, LLC, priority 2017, dated 2022)

Assays:
Assay in all cases: SILAC RP-ABPP
Type in all cases: cell-based
[1] = biological target: T1, PSAP Proactivator polypeptide (P07602) (Homo sapiens, UniProt P07602); conditions: SILAC H/L, MDA-MB-231
T1 construct: In Situ Labelling of Cells with Hydrazine Probes for MS Experiments; endogenous in cells; host or cells: HEK293T and MDA-MB-231
T1 sequence (P07602 60-524): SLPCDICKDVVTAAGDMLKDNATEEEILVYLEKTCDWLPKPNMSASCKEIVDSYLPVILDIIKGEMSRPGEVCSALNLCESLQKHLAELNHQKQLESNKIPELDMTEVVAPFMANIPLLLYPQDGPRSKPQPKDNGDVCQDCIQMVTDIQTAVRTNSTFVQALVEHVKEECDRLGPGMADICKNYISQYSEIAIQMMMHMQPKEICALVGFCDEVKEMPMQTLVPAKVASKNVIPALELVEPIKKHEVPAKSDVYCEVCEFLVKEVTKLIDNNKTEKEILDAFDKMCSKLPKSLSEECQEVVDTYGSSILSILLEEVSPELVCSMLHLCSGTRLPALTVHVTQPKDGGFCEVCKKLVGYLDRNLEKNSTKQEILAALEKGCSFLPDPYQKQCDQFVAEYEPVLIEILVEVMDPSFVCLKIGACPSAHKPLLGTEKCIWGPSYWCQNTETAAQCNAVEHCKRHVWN

[2] = biological target: T2, ALDOC Fructosebisphosphate aldolase C (P09972) (Homo sapiens, UniProt P09972); conditions: SILAC H/L, HEK293T
T2 construct: shared by both the endogenous and recombinant forms of these proteins; endogenous in cells; host or cells: HEK293T and MDA-MB-231
T2 sequence (P09972 1-364): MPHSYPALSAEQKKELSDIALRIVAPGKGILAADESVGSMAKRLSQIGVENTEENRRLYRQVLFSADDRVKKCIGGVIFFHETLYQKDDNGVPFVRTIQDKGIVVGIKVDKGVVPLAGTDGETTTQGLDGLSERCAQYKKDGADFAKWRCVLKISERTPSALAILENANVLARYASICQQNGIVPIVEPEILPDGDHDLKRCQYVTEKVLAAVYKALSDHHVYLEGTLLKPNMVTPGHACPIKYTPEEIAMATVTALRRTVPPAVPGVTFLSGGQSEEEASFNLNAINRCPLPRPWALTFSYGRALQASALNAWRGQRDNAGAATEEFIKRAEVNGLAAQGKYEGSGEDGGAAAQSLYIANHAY
Outline: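 Heavy SILAC HEK293T or MDA-MB-231 cells were treated with hydrazine probe 1 (3 mM, 0.5 h); light cells received non-clickable hydrazine 3 at the same concentration (enrichment) or probe plus 10× competitor 3 (competition). Lysates were mixed, clicked to biotin-azide and analysed by LC-MS; values are median heavy:light peptide ratios averaged over ≥3 replicates.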

[3] = biological target: T3, IBA57 Putative transferase CAF17 (Q5T440) (Homo sapiens, UniProt Q5T440); conditions: SILAC H/L, HEK293T
T3 construct: shared by both the endogenous and recombinant forms of these proteins; endogenous in cells; host or cells: HEK293T and MDA-MB-231
T3 sequence (Q5T440 40-356): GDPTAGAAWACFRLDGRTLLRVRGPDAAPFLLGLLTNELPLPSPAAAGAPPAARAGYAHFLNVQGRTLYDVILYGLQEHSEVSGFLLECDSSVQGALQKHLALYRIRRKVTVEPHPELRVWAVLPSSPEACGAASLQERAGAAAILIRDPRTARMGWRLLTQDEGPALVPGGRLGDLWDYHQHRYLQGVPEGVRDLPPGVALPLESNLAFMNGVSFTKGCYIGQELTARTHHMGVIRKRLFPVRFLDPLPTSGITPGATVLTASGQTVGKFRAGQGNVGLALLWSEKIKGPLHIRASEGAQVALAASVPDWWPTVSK

Compound	enrichment ratioavg ([1]; probe 1 3 mM 0.5 h vs probe 3)	competition ratioavg ([1]; probe 1 vs probe 1+10x probe 3)	enrichment ratioavg ([2]; probe 1 3 mM 0.5 h vs probe 3)	competition ratioavg ([2]; probe 1 vs probe 1+10x probe 3)	enrichment ratioavg ([3]; probe 1 3 mM 0.5 h vs probe 3)	competition ratioavg ([3]; probe 1 vs probe 1+10x probe 3)	enrichment ratioavg ([1]; probe 2 1 mM 0.5 h vs probe 4)	competition ratioavg ([1]; probe 2 vs probe 2+10x probe 4)	enrichment ratioavg ([2]; probe 2 1 mM 0.5 h vs probe 4)	competition ratioavg ([2]; probe 2 vs probe 2+10x probe 4)	enrichment ratioavg ([3]; probe 2 1 mM 0.5 h vs probe 4)	competition ratioavg ([3]; probe 2 vs probe 2+10x probe 4)
C#CCNN.Cl [probe 1, prop-2-yn-1-ylhydrazine hydrochloride]	12	3	16	3	14	3	–	–	–	–	–	–
C#CCCNC(=O)c1ccc(NN)cc1.Cl [probe 2, N-(but-3-yn-1-yl)-4-hydrazinylbenzamide hydrochloride]	–	–	–	–	–	–	5	5	14	5	9	4
